{"source": "ChEMBL document CHEMBL4421729", "about": "(2013)", "target": "T1, Taste receptor type 2 member 46 (Homo sapiens) (UniProt P59540)", "T1 sequence (whole entry)": "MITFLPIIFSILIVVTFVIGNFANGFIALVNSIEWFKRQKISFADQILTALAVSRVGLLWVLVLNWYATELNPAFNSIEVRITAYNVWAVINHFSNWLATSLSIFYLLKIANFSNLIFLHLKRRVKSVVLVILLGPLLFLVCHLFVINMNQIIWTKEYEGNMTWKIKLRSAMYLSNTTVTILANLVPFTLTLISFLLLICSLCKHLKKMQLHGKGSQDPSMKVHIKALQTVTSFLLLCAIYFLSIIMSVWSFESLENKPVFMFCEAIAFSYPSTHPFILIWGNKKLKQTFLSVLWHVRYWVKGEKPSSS", "assay": "Agonist activity human TAS2R46 transiently expressed in HEK293T/Galpha16-gustducin 44 cells assessed as effect on calcium flux by measuring deltaF/F0 ratio by Fluo-4-AM dye based FLIPR assay", "type": "functional, cell-based"}
{"compound": "COc1ccc2c(c1)[C@]13CCCC[C@@H]1[C@H](C2)N(C)CC3", "values": [{"measurement": "Activity", "value": "Dose-dependent effect"}]}
